# Where “and” joins values, the source holds several entries; their conditions need not be identical. Identical values can stand only once. Entries after “also recorded” stand apart in the source; their conditions may differ. Like-named read-outs stand apart in the source and are kept apart here. Non-standard residues stand in square brackets, D forms with d. Residues, ends and D or L forms follow the SMILES beside them.
# Tests used:
# Solubility in PBS = format: physicochemical
# Description: The peptides were purified on a preparative Vydac C4 column by reversed-phase (RP)-HPLC using water (with 0.1% trifluoroacetic acid) and acetonitrile (0.1% trifluoroacetic acid). The purity and the retention times of the peptides were determined on an analytical Vydac C18 column using a gradient of 25%-58% acetonitrile in water containing 0.1% TFA. The purity of these peptides was also confirmed by mass spectrometry. The mass was in agreement with the calculated molecular weight. Although both the 3F peptides and 4F have additional Phe residues compared to 2F, the retention times of these peptides on the C18 column are not very different (˜22 min). A sudden increase in the retention time is apparent with 5F, 6F and 7F (˜26 min). With increasing number of Phe residues, the solubility of these peptides in PBS decreases.
# [1] = Surface pressure measurements: monolayer exclusion pressure; format: physicochemical; settings: EPC monolayer; reproducibility ± 1 dyn/cm
# Description: An insoluble monolayer of egg phosphatidylcholine (EPC) was spread at the air-water interface in a Teflon dish at room temperature to give an initial surface pressure (πi) in the range of 5–45 dyn/cm. A solution of peptides in PBS containing 1.5M Gdn. HCl was carefully injected in to the subphase to give a final concentration of 50 μg/dL. The Gdn. HCl was diluted in the subphase to a final concentration of ≦1 mM to allow the peptides to renature. The subphase was stirred continuously and the increase in EPC monolayer surface pressure (Δπ) was recorded until a steady state value was obtained. The value of the initial surface pressure (πi) at which the peptides no longer penetrate the EYPC monolayer i.e. the exclusion pressure (πe), was calculated by extrapolating the πi vs Δπ linear regression fit to Δπ=0 dyn/cm.
# [2] = Circular dichroism, percent helicity; format: physicochemical; settings: for Percent Helicity PBS: 11 μM peptide in PBS; for Percent Helicity DMPC: 11 μM peptide, Peptide: DMPC 1:20 (mol/mol)
# Description: Briefly, spectra were obtained using a cell with a 0.1 cm path length and measurements were taken every nm from 260 nm to 190 nm at 25° C. All the CD spectra were signal averaged by adding four scans, base line corrected and smoothed. Peptide solutions in PBS, pH 7.4, were used at a concentration of 11 μM. Peptide-DMPC complexes (1:20 mol:mol) were used to determine the effect of lipid binding on the helicity of these peptides. These complexes were prepared by adding the appropriate volume of peptide solution to DMPC multilamellar vesicles. DMPC multilamellar vesicles were prepared as follows: A known amount of lipid was dissolved in ethanol and the solvent was removed by evaporating slowly under a thin stream of nitrogen. Residual solvent was removed by storing the lipid film under vacuum overnight. An appropriate volume of PBS, pH 7.4 was added to the thin lipid film to give the required final concentration of DMPC.
# [3] = DSC, chain melting transition of DMPC; format: physicochemical; settings: DMPC/peptide 100:1 (mol/mol); for TCM(° C.): 1.5 mM DMPC, chain melting transition temperature; for ΔHCM (kcals/mol): enthalpy of the transition; for ΔT1/2 (° C.): width at half maximum of the transition
# Description: (§1) A known amount of phospholipid was dissolved in chloroform. For one set of samples, peptide was dissolved in methanol and added to a solution of DiPoPE in chloroforn/methanol (2:1, v:v). For both, pure lipid samples and the organic solutions of lipid and peptide, solvent was removed under a slow stream of nitrogen. Residual solvent was removed under vacuum. […] For DMPC, four consecutive scans with a 60 minute equilibration time between scans were taken. DSC thermograms were analyzed using the software provided by MicroCal Inc., Amherst, Mass., and Origin, version 5.0.
# The effect of these 18A analogues on the chain melting transition of multilamellar vesicles of DMPC was studied by DSC using peptide-lipid mixtures at 100:1 lipid/peptide molar ratio.
# [4] = DSC, bilayer to hexagonal phase transition of DiPoPE; format: physicochemical; settings: heating scan rate 37°/h
# Description: as §1
# In the current study we prepared the peptide-lipid mixtures in two ways. One was by adding the peptide in organic solvent to the lipid in organic solvent followed by depositing the material as a film and subsequently hydrating with buffer. In the other method, the peptide and lipid were mixed after each was hydrated separately. If the mixture comes to equilibrium prior to the DSC analysis, it should not matter how the peptide and lipid are originally mixed. However, membrane systems can equilibrate slowly, in which case there may be more peptide in the lipid when it was incorporated at high concentrations into the lipid film.
# [5] = Right angle light scattering, dissolution of EPC MLVs; format: physicochemical; settings: 105 μM EPC, equimolar peptide; for clarification of EPC MLVs: 25° C., 30 min
# Description: EPC MLVs were prepared by evaporating a solution of EPC (Avanti Polar, AL) under nitrogen and hydrating the lipid film with phosphate-buffered saline (pH 7.4). […] Turbidity clarification was monitored for 30 min.
# [6] = tested on: human artery wall cell cocultures; test: LDL-induced monocyte chemotactic activity with the homologous series of peptides (Example 3); format: cell-based; settings: peptide at 100 μg/ml, LDL 250 μg protein/ml, 8 h
# Description: Microtitre plates were treated with 0.1% gelatin at 37° C. overnight. HASMC were added at a confluent density of 1×10^5 cells/cm^2. […] HAEC were subsequently added at 2×10^5 cells/cm^2 and were allowed to grow, forming a complete monolayer of confluent HAEC in two days. In all experiments, HAEC and autologous HASMC (from the same donor) were used at passage levels of four to six. […] The cocultures were treated with native LDL(250 μg protein/ml) or presence of HDL (350 μg protein/ml) or peptides for 8 h.
# [7] = tested on: human artery wall cell cocultures; test: Lipoproteins from mice given peptide by gavage tested in human artery wall cell cocultures (monocyte chemotactic activity)
# Description: Groups of LDL receptor-deficient mice (n=3) were administered the D-peptides or the saline vehicle by gavage. […] Blood was collected from retroorbital sinus under mild anesthesia 17 hrs later. LDL was isolated from plasma by FPLC. Cocultures of artery wall cells were incubated with medium alone (NO ADDITION), control LDL from normal subjects (LDL), LDL plus control HDL from normal subjects (+HDL). […] The cocultures were incubated for 4 hrs at 37° C. in the presence of 10% LPDS. The supernatants were then discarded, the cocultures were washed and incubated with culture medium without serum or LPDS for an additional 4 hrs. This conditioned medium was collected and analyzed for monocyte chemotactic activity. The values are mean±SD of quadruplicate cocultures.
# Blood was collect after 6 hrs, plasma HDL and LDL were isolated by gel filtration (FPLC) and examined in the cocultures. […] Human LDL at 200 μg protein/ml was added to human artery wall cell cocultures together with human HDL (hHDL) at 350 μg protein/ml or mouse HDL (mHDL) at 100 μg cholesterol/ml taken from mice that received saline (Saline Rx) or L-4F (L-4F Rx) or D-4F (D-4F Rx) and monocyte chemotactic activity was determined as described herein. […] On the right, mouse LDL (mLDL) was isolated from mice receiving saline (Saline Rx) or L-4F (L4F Rx) or D-4F (D-4F Rx) and was added at 100 μg cholesterol/ml to the artery wall cell cocultures without HDL and monocyte chemotactic activity determined. Values are mean±SD) for four wells in two independent experiments.
# Either saline or 2F synthesized from D amino acids or from L amino acids was instilled in the stomachs of mice by gavage (instillation in the stomach by tube). After gavage the mice were bled and their LDL isolated and added to the human artery wall cell cocultures.
# The animals were bled 1.5, 3 or 6 hours later and their HDL, LDL, and VLDL/IDL isolated.
# Human aortic endothelial and smooth muscle cells were isolated and cultured as previously described (Id.). Cellular oxidation of LDL in the presence and absence of HDL was determined as described (Id.). Human blood monocytes were isolated after obtaining informed consent and monocyte chemotaxis was determined as described previously^5.
# [8] = tested on: Human aortic wall cocultures; test: LDL plus peptide in vitro in human aortic wall cocultures, monocyte chemotactic activity (Example 2); format: cell-based; settings: control LDL 250 μg/ml plus varying amounts of peptide
# Description: Human aortic wall cocultures were incubated with medium alone (LDL, NO CELLS or CELLS, NO LDL, see FIG. 9), control LDL from normal subjects at 250 μg/ml (LDL) and LDL plus control HDL from normal subjects at 350 μg/ml (+HDL). Other cocultures were incubated With the control LDL together with varying amounts (micrograms shown on the abscissa) of either D-2F, or L-2F (third panel from the left, 2F) or D-37-pA or L-37pA (last panel on the right, 37pA). The data represent mean±SD of values obtained from quadruplicate cocultures.
# [9] = mouse, in vivo
# Description: The 5F peptide, MoAI, and human apo A-I were labeled with ^125I by the method of Bilheimer et al. (1972) Biochim. Biophys. Acta 260: 212–221. Mice were placed on a modified Thomas-Hartroft atherogenic diet (#TD88051; Teklad, Madison, Wis.) for four weeks at which time daily intraperitoneal injections of peptide or protein dissolved in 200 μl phosphate-buffered saline (PBS) were begun. Animals injected with MoAI or human apo A-I received 50 μg per animal; those injected with 5F received 20 μg. Animals were not fasted for the kinetic studies and blood samples were taken under xylazine:ketamine anesthesia from the retro-orbital sinus at 15, 30, and 45 minutes, and 1, 1.5, 2, 3, 4, 6, 8, 12, and 24 hours following injection. Each animal provided three blood samples at different time points (all retro-orbital and alternating eyes), and at least three samples were collected (from different animals) at each time point. Samples were collected into heparinized capillary tubes, then placed in microcentrifuge tubes; the plasma was separated by centrifugation. Duplicate 10 μl aliquots of each sample were taken for radioactivity determination, using gamma counting (Cobra; Packard Instruments, Downers Grove, Ill.) for 10 minutes per sample. Total plasma volume was calculated as 4.2% body weight. Each sample was expressed as percent of injected CPM in total plasma. Free ^125I was determined by trichloroacetic acid (TCA) precipitation (1 ml of 10% TCA per 10 μl plasma sample). Fitting to the kinetic model was done using all data points, rather than averages at each time point (PKAnalyst, MicroMath Scientific Software, Salt Lake City, Utah).
# Treatment groups were compared by two-tailed t-tests or one way analysis of variance (where the data were normally distributed), or by one way analysis of variance on ranks (SigmaStat; SPSS Science, Chicago, Ill.). Kinetics of peptide or protein turnover were analyzed by fitting to a first order one-compartment kinetic model assuming non-equal input and output rates (PKAnalyst; MicroMath Scientific Software, Salt Lake City, Utah).
# [10] = 5F, 100 μg per animal by oral gavage, LDL receptor null mice, blood after 6 hrs
compound,measurement,setting,value
"CC(=O)N[C@@H](CC(=O)O)C(=O)N[C@@H](Cc1c[nH]c2ccccc12)C(=O)N[C@@H](Cc1ccccc1)C(=O)N[C@@H](CCCCN)C(=O)N[C@@H](C)C(=O)N[C@@H](Cc1ccccc1)C(=O)N[C@@H](Cc1ccc(O)cc1)C(=O)N[C@@H](CC(=O)O)C(=O)N[C@@H](CCCCN)C(=O)N[C@H](C(=O)N[C@@H](C)C(=O)N[C@@H](CCC(=O)O)C(=O)N[C@@H](CCCCN)C(=O)N[C@@H](Cc1ccccc1)C(=O)N[C@@H](CCCCN)C(=O)N[C@@H](CCC(=O)O)C(=O)N[C@@H](C)C(=O)N[C@@H](Cc1ccccc1)C(N)=O)C(C)C [Peptide 4F, Ac-D-W-F-K-A-F-Y-D-K-V-A-E-K-F-K-E-A-F-NH2]",Solubility,Solubility in PBS,1300 µg/mL
same,solubility,Solubility in PBS; Solubility (mg/ml),1250 to 1400 µg/mL
same,Monolayer Exclusion Pressure(πc),[1],40 dyn/cm
same,Percent Helicity PBS,[2],45%
same,Percent Helicity DMPC,[2],44%
same,TCM(° C.),[3],23.2 °C
same,ΔHCM (kcals/mol),[3],5.3 kcals/mol
same,ΔT1/2 (° C.),[3],0.4 °C
same,shift in TH of DiPoPE with mol fraction of peptide,[4],more rapid increase is observed at lower peptide concentrations
same,time for 50% clearance of the turbidity of EPC MLVs,[5],shortest
same,clarification of EPC MLVs,[5],most effective in clarifying EPC MLVs with activity similar to that of Triton X-100
same,inhibition of LDL-induced monocyte chemotaxis,[6],significant and similar inhibition
"CC(=O)N[C@H](CC(=O)O)C(=O)N[C@H](Cc1c[nH]c2ccccc12)C(=O)N[C@H](CC(C)C)C(=O)N[C@H](CCCCN)C(=O)N[C@H](C)C(=O)N[C@H](Cc1ccccc1)C(=O)N[C@H](Cc1ccc(O)cc1)C(=O)N[C@H](CC(=O)O)C(=O)N[C@H](CCCCN)C(=O)N[C@@H](C(=O)N[C@H](Cc1ccccc1)C(=O)N[C@H](CCC(=O)O)C(=O)N[C@H](CCCCN)C(=O)N[C@H](Cc1ccccc1)C(=O)N[C@H](CCCCN)C(=O)N[C@H](CCC(=O)O)C(=O)N[C@H](Cc1ccccc1)C(=O)N[C@H](Cc1ccccc1)C(N)=O)C(C)C [Peptide D-5F, Ac-D-W-L-K-A-F-Y-D-K-V-F-E-K-F-K-E-F-F-NH2] (Ac-[dD][dW][dL][dK][dA][dF][dY][dD][dK][dV][dF][dE][dK][dF][dK][dE][dF][dF]-NH2)",HDL protective capacity,[7]; [10],markedly more protective
same,LDL resistance to oxidation,[7]; [10],highly resistant to oxidation
same,monocyte chemotactic activity induced by mouse VLDL/IDL fraction,"[7]; 50 micrograms by gavage, 3 hour time point",significantly less monocyte chemotactic activity
same,protection of control LDL by mouse HDL,"[7]; 50 micrograms by gavage, HDL taken after 6 hours",slightly less
same,monocyte chemotactic activity induced by mouse LDL,"[7]; 50 micrograms by gavage, after 3 h and 6 h",significantly less monocyte chemotactic activity
"Ac-DWFKAFYDKFFEKFKEFF-NH2 [Peptide 7F, Ac-D-W-F-K-A-F-Y-D-K-F-F-E-K-F-K-E-F-F-NH2]",Monolayer Exclusion Pressure(πc),[1],45 dyn/cm
same,Percent Helicity PBS,[2],58%
same,Percent Helicity DMPC,[2],68%
same,TCM(° C.),[3],23.2 °C
same,ΔHCM (kcals/mol),[3],4.5 kcals/mol
same,ΔT1/2 (° C.),[3],0.5 °C
same,shift in TH of DiPoPE with mol fraction of peptide,[4],do not significantly affect TH
same,initial lag period in EPC MLV clearance,[5],~300 s
same,time for 50% clearance of the turbidity of EPC MLVs,[5],longest time
same,clarification of EPC MLVs,[5],clarified the EPC MLVs to a similar extents
same,inhibition of LDL-induced monocyte chemotaxis,[6],"significantly less effective than peptides 4F, 5F and 6F"
Ac-DWFKAFYDKVAEKLKEAF-NH2 [3F^3],solubility,"Solubility in PBS; in PBS, read-out: Solubility",1250 to 1400 µg/mL
"Ac-DWLKAFYDKFFEKFKEFF-NH2 [Peptide 6F, Ac-D-W-L-K-A-F-Y-D-K-F-F-E-K-F-K-E-F-F-NH2]",Solubility,Solubility in PBS,30 µg/mL
same,solubility,Solubility in PBS; Solubility (mg/ml),30 to 100 µg/mL
same,Monolayer Exclusion Pressure(πc),[1],45 dyn/cm and 46 dyn/cm
same,Percent Helicity PBS,[2],67%
same,Percent Helicity DMPC,[2],50%
same,TCM(° C.),[3],23.1 °C
same,ΔHCM (kcals/mol),[3],4.0 kcals/mol
same,ΔT1/2 (° C.),[3],0.5 °C
same,shift in TH of DiPoPE with mol fraction of peptide,[4],do not significantly affect TH
same,clarification of EPC MLVs,[5],clarified the EPC MLVs to a similar extents
same,inhibition of LDL-induced monocyte chemotaxis,[6],significant and similar inhibition
"Ac-DWLKAFYDKVAEKLKEAF-NH2 [Peptide L-2F, Ac-D-W-L-K-A-F-Y-D-K-V-A-E-K-L-K-E-A-F-NH2]",monocyte chemotactic activity induced by LDL treated with peptide in vitro,[8],significantly different from LDL; also recorded: equally able to block LDL oxidation and LDL-induced monocyte chemotactic activity
same,monocyte chemotaxis induced by LDL from mice given 2F by gavage,[7]; D versus L form by gavage,readily induced monocyte chemotaxis
"Ac-DWLKAFYDKVFEKFKEFF-NH2 [Peptide L-5F, Ac-D-W-L-K-A-F-Y-D-K-V-F-E-K-F-K-E-F-F-NH2]",HDL protective capacity,[7]; [10],but not L-5F rendered the HDL markedly more protective
"H-DWLKAFYDKVAEKLKEAF-OH [Peptide 18A, D-W-L-K-A-F-Y-D-K-V-A-E-K-L-K-E-A-F, reference compound]",solubility,"Solubility in PBS; in PBS, read-out: Solubility",> 2000 µg/mL
same,Monolayer Exclusion Pressure(πc),[1],30 dyn/cm
"H-DWLKAFYDKVAEKLKEAFPDWLKAFYDKVAEKLKEAF-OH [Peptide 37pA, DWLKAFYDKVAEKLKEAFPDWLKAFYDKVAEKLKEAF, reference compound]",solubility,"Solubility in PBS; in PBS, read-out: Solubility",> 2000 µg/mL
same,Monolayer Exclusion Pressure(πc),[1],40 dyn/cm and 41 dyn/cm
"H-DWLKAFYDKVAEKLKEAFPDWLKAFYDKVAEKLKEAF-OH [Peptide L-37pA, reference compound]",monocyte chemotactic activity induced by LDL treated with peptide in vitro,[8],significantly different from LDL
"Human apo A-I: Human apo A-I is a 243 residue protein, major protein constituent of HDL",Solubility,Solubility in PBS,>2000 µg/mL
same,Monolayer Exclusion Pressure(πc),[1],34 dyn/cm
same,clarification of EPC MLVs,[5],does not clarify EPC MLVs
same,Max. % in plasma,[9],23.7%
same,Time (h) to max. CPM,[9]; ip,3.61 h
same,T½,[9]; ip,15.6 h

# — US7144862B2, “Orally administered peptides to ameliorate atherosclerosis” (The Regents of the University of California, priority 2000, dated 2006)
